Tests used:
[1] = biological target: T1, human cloned CHRM2 receptor (M2_CHO cells) (Homo sapiens, UniProt P08172); experiment: CHRM2 Ca++ Flux Assay (agonist mode, FDSS 7000EX); assay type: cell-based; settings: for M2 FDSS PA: Percent Activity measured to EC100 of Carbachol; for EC50: agonist mode, geometric mean if tested more than once, read-out: M2 FDSS EC50
T1 construct: expressed in transfected cells; host or cells: CHO-K1
T1 sequence (P08172 1-466): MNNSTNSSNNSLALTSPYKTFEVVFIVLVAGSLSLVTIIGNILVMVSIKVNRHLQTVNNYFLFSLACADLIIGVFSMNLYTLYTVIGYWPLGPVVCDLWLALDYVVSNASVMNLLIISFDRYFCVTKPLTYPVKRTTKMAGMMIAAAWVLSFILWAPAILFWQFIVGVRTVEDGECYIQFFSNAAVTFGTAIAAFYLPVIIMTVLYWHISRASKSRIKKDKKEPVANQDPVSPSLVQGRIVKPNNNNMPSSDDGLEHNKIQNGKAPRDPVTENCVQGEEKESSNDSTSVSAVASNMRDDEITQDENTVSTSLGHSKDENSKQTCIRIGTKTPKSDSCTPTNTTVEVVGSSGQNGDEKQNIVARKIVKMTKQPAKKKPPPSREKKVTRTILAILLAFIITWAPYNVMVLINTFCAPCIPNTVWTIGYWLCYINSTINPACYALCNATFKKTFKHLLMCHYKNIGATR
Procedure: (§1) The above examples were characterized by measuring the intracellular mobilization of Ca++ ions caused by signaling events mediated by the receptor. The Intra-cellular Calcium flux levels were captured by the highly sensitive Ca++ indicator, Calcium Assay Kit (BD Biosciences, Catalog Number 640178). The fluorescent activity from all receptors were monitored by the fluorescent imager, FDSS 7000EX (Hamamatsu) over a span of 3 minutes.
(§2) CHO-K1 cells stably expressing the human cloned CHRM2 receptor (M2_CHO cells) were grown and maintained in a monolayer culture with F12/HAM (Life Technologies) supplemented with 10% Fetal Bovine Serum, 1× Pen-Strep, and 0.4 mg/mL Geneticin in a humidified atmosphere (5% CO2) at 37° C. The cultures were grown to 80-9 0% confluency in T150 flasks (Corning) and washed with 1×DPBS and lifted with 0.05% Trypsin (Life Technologies). The cells were then spun (1K rpm, 3 minutes) and frozen using Recovery Cell Culture Freezing Media (Gibco Technologies). Cells were stored in liquid nitrogen and thawed a day before the assay.
Prior to the day of the assay, stable M2 CHO cells were thawed and plated on Greiner 384 well TC treated plate at a density of 12K cells/well and kept overnight in a humidified atmosphere (5% CO2) at 37° C. The following day, the cells were loaded with Ca^++ dye (BD Biosciences) using Loading Buffer (HBSS +Ca/+Mg, 20 mM HEPES, 2.5 mM Probenecid) and placed back in cell incubator for a minimum of 1 hour and maximum of 2 hours. After incubation, the dye was replaced with Assay Buffer (HBSS −Ca/−Mg, 20 mM HEPES, 2.5 mM Probenecid) supplemented with 20 μM ATP (Sigma Aldrich) and kept at room temperature for 60 minutes prior before running on cell imager. The FDSS 7000EX (Hamamatsu) was used to acquire Ca^++ traces from cells in response to compound treatment and the data was used to generate dose response curves in agonist mode. All compounds were serially diluted in DMSO then prepared in Assay Buffer for Ca^++ flux studies. The dose response curves were generated from the average of triplicate wells obtained from each data point and used a non-linear regression of four parameter dose response algorithm. The Percent Activity (PA) was measured to EC100 of Carbachol.

[2] = biological target: T2, human cloned CHRM5 receptor (M5_CHO) (Homo sapiens, UniProt P08912); experiment: CHRM5 Ca++ Flux Assay (agonist mode, FDSS 7000EX); assay type: cell-based; settings: for M5 FDSS PA: Percent Activity measured to EC100 of Carbachol; for EC50: agonist mode, geometric mean if tested more than once, read-out: M5 FDSS EC50
T2 construct: expressed in transfected cells; host or cells: CHO (M5_CHO)
T2 sequence (P08912 1-532): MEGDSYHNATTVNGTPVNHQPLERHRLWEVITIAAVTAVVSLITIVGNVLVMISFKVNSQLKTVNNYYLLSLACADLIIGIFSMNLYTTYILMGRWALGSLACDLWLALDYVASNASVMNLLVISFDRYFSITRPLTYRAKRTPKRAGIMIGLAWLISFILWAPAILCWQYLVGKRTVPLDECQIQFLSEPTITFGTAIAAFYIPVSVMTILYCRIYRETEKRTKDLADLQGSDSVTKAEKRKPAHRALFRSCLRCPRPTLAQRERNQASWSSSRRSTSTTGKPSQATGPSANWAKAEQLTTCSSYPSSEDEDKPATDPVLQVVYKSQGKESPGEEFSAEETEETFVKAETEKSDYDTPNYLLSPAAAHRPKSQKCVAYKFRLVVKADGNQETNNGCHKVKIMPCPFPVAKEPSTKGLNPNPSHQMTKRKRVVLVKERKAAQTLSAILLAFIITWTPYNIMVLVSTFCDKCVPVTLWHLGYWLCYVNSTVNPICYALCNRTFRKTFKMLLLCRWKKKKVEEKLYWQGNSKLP
Procedure: as §1
as §2, with “CHRM3” for “CHRM2”, “(M3_CHO” for “(M2_CHO”, “assay. A similar procedure was used for cells stably expressing the human cloned CHRM5 receptor (M5_CHO).” for “assay.”
Prior to the day of the assay, stable M3_CHO or M5_CHO cells were thawed and plated on Greiner 384 well black TC treated plates at 12K cells/well in F12/DMEM supplemented with 10% FBS (Hyclone) and kept overnight in a humidified atmosphere (5% CO2) at 37° C. The next day, cells were loaded with Ca^++ dye (BD Biosciences) using Loading Buffer (HBSS +Ca/+Mg, 20 mM HEPES, 2.5 mM Probenecid) and placed back in cell incubator for a minimum of 1 hour. After incubation, the dye was replaced with Assay Buffer (HBSS −Ca/−Mg, 20 mM HEPES, 2.5 mM Probenecid) and kept at room temperature in the dark before running on cell imager. The FDSS 7000EX (Hamamatsu) was used to acquire Ca^++ traces from cells treated with 11 point dose response of compounds in triplicate in order to generate dose response curves in agonist mode. All compounds were serially diluted in DMSO then prepared in Assay Buffer for Ca^++ flux studies. The dose response curves were generated from the average of triplicate wells obtained from each data point and used a non-linear regression of four parameter dose response algorithm. The Percent Activity (PA) was measured to EC100 of Carbachol.

O=C(N1CC2(CC[C@@H](N3CCC(c4ccccc4OCCO)CC3)C2)C1)C1(F)CC1 (single isomer, unassigned) [Example 7N, (R)-(1-fluorocyclopropyl)(6-(4-(2-(2-hydroxyethoxy)phenyl)piperidin-1-yl)-2-azaspiro[3.4]octan-2-yl)methanone or (S)-(1-fluorocyclopropyl)(6-(4-(2-(2-hydroxyethoxy)phenyl)piperidin-1-yl)-2-azaspiro[3.4]octan-2-yl)methanone]
M2 FDSS PA [1]: 0%
M5 FDSS PA [2]: 0%
EC50 [2]: > 25 µM

O=C(N1CC2(CC[C@@H](N3CCC(c4ccccc4OCC4CC4)CC3)C2)C1)C1(F)CC1 (single isomer, unassigned) [Example 7O, (R)-(6-(4-(2-(cyclopropylmethoxy)phenyl)piperidin-1-yl)-2-azaspiro[3.4]octan-2-yl)(1-fluorocyclopropyl)methanone or (R)-(6-(4-(2-(cyclopropylmethoxy)phenyl)piperidin-1-yl)-2-azaspiro[3.4]octan-2-yl)(1-fluorocyclopropyl)methanone]
M2 FDSS PA [1]: 0%
M5 FDSS PA [2]: 0%
EC50 [2]: > 25 µM

O=C1CCCN1CCOc1ccccc1C1CCN([C@@H]2CCC3(C2)CN(C(=O)C2(F)CC2)C3)CC1.O=CO (single isomer, unassigned) [Example 7P, (R)-1-(2-(2-(1-(2-(1-fluorocyclopropane-1-carbonyl)-2-azaspiro[3.4]octan-6-yl)piperidin-4-yl)phenoxy)ethyl)pyrrolidin-2-one formate salt or (S)-1-(2-(2-(1-(2-(1-fluorocyclopropane-1-carbonyl)-2-azaspiro[3.4]octan-6-yl)piperidin-4-yl)phenoxy)ethyl)pyrrolidin-2-one formate salt]
M2 FDSS PA [1]: 0%
M5 FDSS PA [2]: 0%
EC50 [2]: > 25 µM

O=C(N1CC2(CC[C@@H](N3CCC(c4ccccc4OCC4CCOCC4)CC3)C2)C1)C1(F)CC1 (single isomer, unassigned) [Example 7Q, (R)-(1-fluorocyclopropyl)(6-(4-(2-((tetrahydro-2H-pyran-4-yl)methoxy)phenyl)piperidin-1-yl)-2-azaspiro[3.4]octan-2-yl)methanone or (S)-(1-fluorocyclopropyl)(6-(4-(2-((tetrahydro-2H-pyran-4-yl)methoxy)phenyl)piperidin-1-yl)-2-azaspiro[3.4]octan-2-yl)methanone]
M2 FDSS PA [1]: 0%
M5 FDSS PA [2]: 0%
EC50 [2]: > 25 µM

Cc1nnc(COc2ccccc2C2CCN([C@@H]3CCC4(C3)CN(C(=O)C3(F)CC3)C4)CC2)s1 (single isomer, unassigned) [Example 7R, (R)-(1-fluorocyclopropyl)(6-(4-(2-((5-methyl-1,3,4-thiadiazol-2-yl)methoxy)phenyl)piperidin-1-yl)-2-azaspiro[3.4]octan-2-yl)methanone or (S)-(1-fluorocyclopropyl)(6-(4-(2-((5-methyl-1,3,4-thiadiazol-2-yl)methoxy)phenyl)piperidin-1-yl)-2-azaspiro[3.4]octan-2-yl)methanone]
M2 FDSS PA [1]: 15%
EC50 [1]: 6.59 µM
M5 FDSS PA [2]: 0%
EC50 [2]: > 25 µM

CCOc1ccccc1C1CCN([C@@H]2CCC3(C2)CN(C(=O)C2(F)CC2)C3)CC1 (single isomer, unassigned) [Example 7S, (R)-(6-(4-(2-ethoxyphenyl)piperidin-1-yl)-2-azaspiro[3.4]octan-2-yl)(1-fluorocyclopropyl)methanone or (S)-(6-(4-(2-ethoxyphenyl)piperidin-1-yl)-2-azaspiro[3.4]octan-2-yl)(1-fluorocyclopropyl)methanone]
M2 FDSS PA [1]: 0%
M5 FDSS PA [2]: 0%
EC50 [2]: > 25 µM

O=C(N1CC2(CC[C@@H](N3CCC(c4ccccc4OCC4CC4)CC3)C2)C1)C1(F)CC1 (single isomer, unassigned) [Example 7T, (R)-(6-(4-(2-(cyclopropylmethoxy)phenyl)piperidin-1-yl)-2-azaspiro[3.4]octan-2-yl)(1-fluorocyclopropyl)methanone or (R)-(6-(4-(2-(cyclopropylmethoxy)phenyl)piperidin-1-yl)-2-azaspiro[3.4]octan-2-yl)(1-fluorocyclopropyl)methanone]
M2 FDSS PA [1]: 19%
EC50 [1]: 18.6 µM
M5 FDSS PA [2]: 0%
EC50 [2]: > 25 µM

Cc1noc(C)c1COc1ccccc1C1CCN([C@@H]2CCC3(C2)CN(C(=O)C2(F)CC2)C3)CC1 (single isomer, unassigned) [Example 7U, (R)-(6-(4-(2-((3,5-dimethylisoxazol-4-yl)methoxy)phenyl)piperidin-1-yl)-2-azaspiro[3.4]octan-2-yl)(1-fluorocyclopropyl)methanone or (S)-(6-(4-(2-((3,5-dimethylisoxazol-4-yl)methoxy)phenyl)piperidin-1-yl)-2-azaspiro[3.4]octan-2-yl)(1-fluorocyclopropyl)methanone]
M2 FDSS PA [1]: 0%
M5 FDSS PA [2]: 0%
EC50 [2]: > 25 µM

— patent US12122761B2, “2-azaspiro[3.4]octane derivatives as M4 agonists” (NOVARTIS AG, priority 2019, dated 2024)
